Results as given in PMC11671014 (PLOS Pathogens, 2024).
Like-named read-outs stand apart in the source and are kept apart here. Each block holds one compound with its values, some of them ahead of it.

Assays:
[1] = test system: P. falciparum (strain 3D7A); design: method as in ref [1] Sanz et al., PloS one 2012; details: 10 x IC50; ref [1] Sanz et al., PloS one 2012; cited from earlier work
[2] = test system: P. falciparum Brazilian field isolates; test: Ex vivo drug susceptibility of Brazilian field isolates (P. falciparum); assay type: cell-based
Description: (§1) Compounds were assayed on ten P. vivax isolates and seven P. falciparum Brazilian isolates collected from mono-infected patients, who had signed a written informed consent form to participate in the study, using previously described methods. The initial parasitemia ranged from 2,100–8,000 parasites/μL for P. vivax and 3,500–9,000 parasites/μL for P. falciparum isolates. Artesunate and chloroquine were assayed in parallel as standard compounds. The analyses included only the isolates that were incubated for ≥ 40 h with the compounds.

[3] = test system: P. vivax Brazilian field isolates; test: Ex vivo drug susceptibility of Brazilian field isolates (P. vivax); assay type: cell-based
Description: as §1

[4] = test system: P. falciparum liver stage schizont (NF175); test: Liver stage schizont assay in primary human hepatocytes (NF175); assay type: cell-based; details: Plasmodium falciparum, Hepatocyte, 96 h, four days
Description: Activity against liver stage parasites was performed using a modification of published procedures. Briefly, cryopreserved human primary hepatocytes (NF175: H1500.H15B+ Lot No. HC0-6, TebuBio or NF135: F00995-P Lot No. IRZ, BioIVT) were thawed and seeded at 18,000 cells per well in collagen-coated 384-well microtiter plates in medium containing 10% heat inactivated fetal bovine serum (hiFBS). Cells were cultured at 37°C in 5% CO2. For NF175, medium was replaced by fresh medium containing 10% hiFBS, 5 h post plating. For NF135, medium was replaced by medium containing 0.2% BSA, 24 h post plating. 48 h post plating, salivary glands from Plasmodium-NF175 or NF135-infected Anopheles stephensi mosquitoes were dissected, added to the hepatocytes (10,000 per well/ NF175; or 12,500 per well/ NF135) and allowed to infect for 3 hours. Sporozoites were then aspirated, and compounds diluted in medium containing 10% hiFBS or 0.2% BSA, were added to the hepatocytes. Medium containing 10% hiFBS or 0.2% BSA and compounds was refreshed daily for four days. […] Cells were imaged on a PicoExpress high content imager, and images were analysed automatically using CellReporterXpress software. Data were analysed by logistic regression using a four-parameter (Hill equation) model and a least-squares method to find the best fit.

Primary hepatocytes = test: Toxicity to primary hepatocyte host cells in the liver stage assay; assay type: cell-based, human; details: Homo sapiens, Hepatocyte, host cells of the NF175 experiment
Description: Activity against liver stage parasites was performed using a modification of published procedures. Briefly, cryopreserved human primary hepatocytes (NF175: H1500.H15B+ Lot No. HC0-6, TebuBio or NF135: F00995-P Lot No. IRZ, BioIVT) were thawed and seeded at 18,000 cells per well in collagen-coated 384-well microtiter plates in medium containing 10% heat inactivated fetal bovine serum (hiFBS). Cells were cultured at 37°C in 5% CO2. For NF175, medium was replaced by fresh medium containing 10% hiFBS, 5 h post plating. For NF135, medium was replaced by medium containing 0.2% BSA, 24 h post plating. 48 h post plating, salivary glands from Plasmodium-NF175 or NF135-infected Anopheles stephensi mosquitoes were dissected, added to the hepatocytes (10,000 per well/ NF175; or 12,500 per well/ NF135) and allowed to infect for 3 hours. Sporozoites were then aspirated, and compounds diluted in medium containing 10% hiFBS or 0.2% BSA, were added to the hepatocytes. Medium containing 10% hiFBS or 0.2% BSA and compounds was refreshed daily for four days. Hepatocytes were fixed with ice-cold methanol and samples were blocked with 10% hiFBS in PBS. Schizonts were stained with rabbit anti-HSP70 in 10% hiFBS for 1–2 h followed by incubation with a mixture of secondary goat anti-rabbit AlexaFluor 594 antibody and 4′,6-diamidine-2′-phenylindole dihydrochloride (DAPI) in 10% hiFBS for 30 min. Samples were washed with PBS containing 0.05% Tween 20 between different steps. Cells were imaged on a PicoExpress high content imager, and images were analysed automatically using CellReporterXpress software. Data were analysed by logistic regression using a four-parameter (Hill equation) model and a least-squares method to find the best fit.

[5] = test system: stage V NF54 strain male and female gametocytes; test: P. falciparum Dual Gamete Formation Assay (PfDGFA); assay type: cell-based; details: Plasmodium falciparum, 48 h
Description: Inhibition of the viability of stage V male and female gametocytes was assessed in the P. falciparum Dual Gamete Formation Assay (PfDGFA) as described previously. Briefly, mature stage V NF54 strain gametocytes were incubated with test molecules for 48 h in 384-well plates at 37°C. Gametogenesis was then triggered by cooling the plates to room temperature and addition of xanthurenic acid-containing activating medium (also containing anti-Pfs25 antibody (Mab 4B7) conjugated to a Cy3 fluorophore). Twenty minutes after activation, exflagellation was imaged in all wells of the plate using a x4 objective and automated brightfield microscopy. The plate was then incubated at 20°C for a further 24 h in the dark. Thereafter, female gamete formation was quantified by automated identification of Pfs25-positive cells. Automated counts were transformed to percent inhibition values with reference to positive 100 nM Cabamiquine (DDD498) and negative (DMSO) controls. Data represent the means of multiple independent biological repeats.

Compound: C[C@@H]1CC[C@H]2[C@@H](C)C(=O)O[C@@H]3O[C@@]4(C)CC[C@@H]1[C@]32OO4 [Artemisinin]
Lag phase [1]: 0 h | Log PRR [1]: > 4.8 | PCT99.9% [1]: < 24 h

EC50 ([2]; Plasmodium falciparum; range over n = 7 isolates; read-out: EC50 range, P. falciparum Brazilian field isolates): 0.8 to 3.1 nM | EC50 ([2]; Plasmodium falciparum; read-out: Median EC50, P. falciparum Brazilian field isolates): 2.2 nM | EC50 ([3]; Plasmodium vivax; range over n = 10 isolates; read-out: EC50 range, P. vivax Brazilian field isolates): 0.8 to 3.5 nM | EC50 ([3]; Plasmodium vivax; read-out: Median EC50, P. vivax Brazilian field isolates): 1.7 nM
Compound: C[C@H]1[C@H](OC(=O)CCC(=O)O)O[C@@H]2O[C@@]3(C)CC[C@H]4[C@H](C)CC[C@@H]1[C@@]24OO3 [Artesunate]

Compound: O=C1C(O)=C([C@H]2CC[C@H](c3ccc(Cl)cc3)CC2)C(=O)c2ccccc21 [Atovaquone]
IC50 [4]: 7 ± 3.9 nM | IC50 (Primary hepatocytes): > 1000 nM | Lag phase [1]: 48 h | Log PRR [1]: 2.9 | PCT99.9% [1]: 90 h | Slope [1]: -0.060

IC50 ([5]; female, read-out: Dual gamete formation assay (female) IC50(48h)): 2.2 ± 0.1 nM | IC50 ([5]; male, read-out: Dual gamete formation assay (male) IC50(48h)): 2.3 ± 0.4 nM
Compound: O=C(NCCN1CCCC1)c1cc(-c2ccc(CN3CCOCC3)cc2)nc2ccc(F)cc12 [Cabamiquine, reference compound]

EC50 ([2]; Plasmodium falciparum, read-out: EC50 range, P. falciparum Brazilian field isolates): 172 to 520 nM | EC50 ([2]; Plasmodium falciparum, read-out: Median EC50, P. falciparum Brazilian field isolates): 286 nM | EC50 ([3]; Plasmodium vivax, read-out: EC50 range, P. vivax Brazilian field isolates): 104 to 560 nM | EC50 ([3]; Plasmodium vivax, read-out: Median EC50, P. vivax Brazilian field isolates): 143 nM
Compound: CCN(CC)CCCC(C)Nc1ccnc2cc(Cl)ccc12 (stereo not shown) [Chloroquine]
Lag phase [1]: 0 h | PCT99.9% [1]: 33.8 h | Slope [1]: -0.094
